The source of these data is ChEMBL document CHEMBL1201862, “PubChem BioAssay data set” (2004).

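1) Cells in 96-well plates. 2) Compound, 48 h, 5 concentrations. 3) Linear interpolation between surrounding doses. 4) Unreached endpoint = highest concentration. Abbreviation: GI50, concentration required for 50% inhibition of growth.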 Activity calls are given as the source filed them. Rule as the data show it: active = GI50 up to about 1.1 µM and inactive = higher.

Among the test systems are 786-0; NCI-H23; OVCAR-3; UACC-62; M14; A549; U-251; MDA-N; A498; HCT-15; NCI-H226; SN12C; MDA-MB-231; CAKI-1; RXF 393; UO-31; SK-MEL-5; MCF7; SK-MEL-2; SR.
Common to all, as to assay: NCI tumour cell line growth inhibition, 48 h

Take `Cc1ccsc1/C=N/Nc1nc2ccccc2s1`: the GI50 was 12.3 µM (inactive) with 786-0; 31.8 µM (inactive) with NCI-H23; 12.9 µM (inactive) with OVCAR-3; 27.9 µM (inactive) with UACC-62; 28.1 µM (inactive) with M14; 16.3 µM (inactive) in the experiment on A549. Besides, the GI50 in the experiment with U-251 is 13.5 µM (inactive); in the experiment with MDA-N, 34.8 µM (inactive); with A498, 2.35 µM (inactive); in the experiment on HCT-15, 50.5 µM; in the experiment with NCI-H226, 19.4 µM (inactive); in the experiment with SN12C, 13.3 µM (inactive). Besides, the GI50 in the experiment on MDA-MB-231 was 12.8 µM (inactive); in the experiment with CAKI-1, 15.5 µM (inactive); in the experiment on RXF 393, 6.27 µM (inactive); in the experiment on UO-31, 20.8 µM (inactive); in the experiment with SK-MEL-5 it was 20.9 µM (inactive); in the experiment on MCF7 it was 11.5 µM (inactive). In the experiment with SK-MEL-2, the GI50 was 26.2 µM (inactive).
Turning to `Cc1cccc2c(N)c3cccc(C(=O)NCC[N+](C)(C)Cc4ccc(S(C)(=O)=O)cc4)c3nc12`, the GI50 is 28 µM (inactive) with 786-0; 21.8 µM (inactive) in the experiment on NCI-H23; 67 µM (inactive) in the experiment with OVCAR-3; > 95.9 µM (inactive) in the experiment on UACC-62; > 100 µM (inactive) in the experiment with M14; 1.44 µM (inactive) with A549. For the same compound, the GI50 in the experiment with U-251 is 45.6 µM (inactive); in the experiment on MDA-N it was > 100 µM (inactive); in the experiment on A498, 10.8 µM (inactive); with HCT-15, greater than 100 µM; with NCI-H226, 98.2 µM (inactive); in the experiment on SN12C it was 2.9 µM (inactive). In addition, the GI50 in the experiment on MDA-MB-231 was > 81.3 µM (inactive); in the experiment with CAKI-1, 26.1 µM (inactive); in the experiment on RXF 393, 76.7 µM (inactive); with UO-31, 75.9 µM (inactive); in the experiment on SK-MEL-5, 70.5 µM (inactive); with MCF7, 11.5 µM (inactive). In addition, the GI50 in the experiment on SK-MEL-2 was 98.4 µM (inactive).
With `O=C(O)CC(NC(=O)/C(=C/c1ccccc1)NC(=O)c1ccccc1)C(=O)O` (stereo not drawn), the GI50 in the experiment with 786-0, in the experiment on NCI-H23, in the experiment on OVCAR-3, in the experiment on UACC-62, with M14 and in the experiment with A549 was > 100 µM (inactive) each time. The GI50 was > 100 µM (inactive) in the experiment on U-251; > 100 µM (inactive) with MDA-N; > 100 µM (inactive) in the experiment on A498; greater than 100 µM in the experiment with HCT-15; > 100 µM (inactive) in the experiment on NCI-H226; > 100 µM (inactive) in the experiment with SN12C. Also, the GI50 in the experiment on MDA-MB-231, with CAKI-1, with RXF 393, in the experiment on UO-31, with SK-MEL-5 and in the experiment with MCF7 was > 100 µM (inactive) each time. Also, the GI50 with SK-MEL-2 is > 100 µM (inactive).
Regarding `COc1cc(C2c3cc4c(cc3OC(NN)C2C)OCO4)cc(OC)c1O` (stereo not drawn), the GI50 with 786-0 is 11.3 µM (inactive); in the experiment with NCI-H23 it was 27 µM (inactive); with OVCAR-3 it was 3.66 µM (inactive); in the experiment on UACC-62, 4.92 µM (inactive); with M14, 10.4 µM (inactive); in the experiment with A549 it was 8.2 µM (inactive). Also, the GI50 with U-251 is 7.23 µM (inactive); in the experiment on MDA-N, 1.84 µM (inactive); in the experiment on HCT-15, 3.72 µM; in the experiment with NCI-H226 it was 25.4 µM (inactive); in the experiment on SN12C, 4.3 µM (inactive); in the experiment on MDA-MB-231, 9.2 µM (inactive). The GI50 was 10.4 µM (inactive) in the experiment on CAKI-1; 15.3 µM (inactive) in the experiment on RXF 393; 19.8 µM (inactive) in the experiment with UO-31; 4.13 µM (inactive) in the experiment with SK-MEL-5; 8.09 µM (inactive) with MCF7; 3.3 µM (inactive) in the experiment with SK-MEL-2.
With `COc1ccc(/C=C/C(=O)CCN2CCN(CCC(=O)/C=C/c3ccc(OC)cc3)CC2)cc1`, the GI50 in the experiment on 786-0 is 3.4 µM (inactive); in the experiment with NCI-H23 it was 15.6 µM (inactive); in the experiment with OVCAR-3 it was 11.4 µM (inactive); in the experiment on UACC-62, 13.4 µM (inactive); in the experiment on M14 it was 15.3 µM (inactive); in the experiment with A549 it was 20.9 µM (inactive). Also, the GI50 is 12.1 µM (inactive) in the experiment with U-251; 2.54 µM (inactive) in the experiment on MDA-N; < 0.01 µM (active) with A498; 8.53 µM in the experiment on HCT-15; 22.3 µM (inactive) in the experiment on NCI-H226; 12.6 µM (inactive) in the experiment on SN12C. The GI50 in the experiment with MDA-MB-231 was 12.6 µM (inactive); in the experiment with CAKI-1, 13.5 µM (inactive); with RXF 393, 4.25 µM (inactive); in the experiment on UO-31, 14.6 µM (inactive); in the experiment on SK-MEL-5 it was 18.1 µM (inactive); in the experiment on MCF7, 3.56 µM (inactive). The GI50 with SK-MEL-2 is 19.4 µM (inactive).
For `O=c1[nH]nc(-c2ccccc2)c2[nH]c3c(c12)CCCc1ccccc1-3`, the GI50 in the experiment with 786-0 was 14.2 µM (inactive); in the experiment on NCI-H23 it was 52.2 µM (inactive); with OVCAR-3 it was 19.3 µM (inactive); with UACC-62, 11.7 µM (inactive); with M14, 16.8 µM (inactive); with SR, 15.1 µM (inactive). Besides, the GI50 with A549 is 9.46 µM (inactive); with U-251, 11.4 µM (inactive); in the experiment with MDA-N, 12.5 µM (inactive); with HCT-15, 2.34 µM; in the experiment on NCI-H226, 16.1 µM (inactive); in the experiment with SN12C, 16.6 µM (inactive). Further, the GI50 with MDA-MB-231 was 15.9 µM (inactive); in the experiment on CAKI-1, 22 µM (inactive); with RXF 393, 15.6 µM (inactive); in the experiment with UO-31, 12.8 µM (inactive); with SK-MEL-5 it was 12.4 µM (inactive); in the experiment with MCF7, 19.6 µM (inactive).
Regarding `CC1=CC(=O)/C(=C(/C)NCCN(CCN/C(C)=C2\C(=O)C=C(C)OC2=O)CCN/C(C)=C2\C(=O)C=C(C)OC2=O)C(=O)O1`, the GI50 with 786-0, in the experiment with M14, in the experiment on SR, in the experiment with A549, in the experiment on U-251 and in the experiment with MDA-N was > 100 µM (inactive) each time. Moreover, the GI50 in the experiment on HCT-15 is greater than 100 µM; in the experiment with SN12C, > 100 µM (inactive); in the experiment on MDA-MB-231, > 100 µM (inactive); with UO-31 it was > 100 µM (inactive); in the experiment with SK-MEL-5, > 100 µM (inactive); in the experiment with MCF7, > 100 µM (inactive).
For the compound `CCCCCCCCCCCCCCCC(=O)Nc1ccn(C2CCC(COP(=O)(O)OCC3OC(n4cc(F)c(=O)[nH]c4=O)CC3OC(C)=O)O2)c(=O)n1` (stereo not drawn), the GI50 with 786-0 was 5.14 µM (inactive); in the experiment on NCI-H23 it was 8.18 µM (inactive); in the experiment with OVCAR-3, 19.4 µM (inactive); in the experiment on UACC-62, 10.7 µM (inactive); in the experiment with M14 it was 13.7 µM (inactive); with A549, 1.67 µM (inactive). The GI50 with U-251 is 12.1 µM (inactive); in the experiment with MDA-N, 19.6 µM (inactive); in the experiment with A498, 11.3 µM (inactive); in the experiment with HCT-15 it was 24.9 µM; in the experiment with NCI-H226 it was 30 µM (inactive); with SN12C, 13.1 µM (inactive). The GI50 in the experiment on MDA-MB-231 was 29.4 µM (inactive); in the experiment on CAKI-1 it was 4.44 µM (inactive); in the experiment with RXF 393, 22.4 µM (inactive); in the experiment with UO-31, 7.48 µM (inactive); in the experiment with SK-MEL-5, 13.5 µM (inactive); in the experiment with MCF7, 2.28 µM (inactive). The GI50 in the experiment on SK-MEL-2 is 23.1 µM (inactive).
For the compound `CC/C=N\N1C(N)=C(C#N)C(C#N)(C#N)C1CC` (stereo not drawn), the GI50 is > 100 µM (inactive) in the experiment on 786-0; > 100 µM (inactive) in the experiment on NCI-H23; > 100 µM (inactive) in the experiment with OVCAR-3; 59.4 µM (inactive) in the experiment with UACC-62; > 100 µM (inactive) in the experiment with M14; > 100 µM (inactive) in the experiment with A549. In addition, the GI50 in the experiment with U-251 was 58.6 µM (inactive); in the experiment on MDA-N it was 53.5 µM (inactive); with A498 it was > 100 µM (inactive); with HCT-15 it was 54.2 µM; with NCI-H226, > 100 µM (inactive); with SN12C, > 100 µM (inactive). Further, the GI50 in the experiment on MDA-MB-231 is > 100 µM (inactive); with CAKI-1 it was > 100 µM (inactive); with RXF 393, > 100 µM (inactive); in the experiment on UO-31 it was > 100 µM (inactive); in the experiment on SK-MEL-5 it was 53.1 µM (inactive); in the experiment with MCF7, 36.5 µM (inactive). In addition, in the experiment on SK-MEL-2, the GI50 is > 100 µM (inactive).
Turning to `CCCCCCCCCCCCCCCCOCC(COP(=O)([O-])OCC[n+]1ccc(N(C)C)cc1)OCC` (stereo not drawn), the GI50 was 18 µM (inactive) in the experiment on 786-0; 18.6 µM (inactive) in the experiment with NCI-H23; 11.4 µM (inactive) in the experiment with OVCAR-3; 12.7 µM (inactive) with UACC-62; 12.4 µM (inactive) in the experiment on M14; 4.95 µM (inactive) in the experiment on SR. Also, the GI50 in the experiment on A549 is 16.2 µM (inactive); in the experiment with U-251 it was 11.7 µM (inactive); in the experiment on MDA-N, 17 µM (inactive); in the experiment with HCT-15 it was 18.2 µM; with NCI-H226 it was 17.2 µM (inactive); with SN12C it was 19.7 µM (inactive). The GI50 is 8.55 µM (inactive) with MDA-MB-231; 16.3 µM (inactive) in the experiment on RXF 393; 15.5 µM (inactive) in the experiment on UO-31; 17.8 µM (inactive) in the experiment with SK-MEL-5; 19.2 µM (inactive) in the experiment on MCF7; 13.4 µM (inactive) in the experiment on SK-MEL-2.
In the case of `CC(=O)C12C[C@](C#N)(N3CCCCCC3)C1C=Cc1ccccc12` (stereo partly drawn), the GI50 in the experiment on 786-0, in the experiment on NCI-H23, in the experiment with OVCAR-3, with UACC-62, with M14 and in the experiment with SR was > 100 µM (inactive) in each case. Further, the GI50 in the experiment with A549 was > 100 µM (inactive); in the experiment on U-251, > 100 µM (inactive); in the experiment on MDA-N, > 100 µM (inactive); in the experiment with HCT-15, greater than 100 µM; in the experiment on NCI-H226, > 100 µM (inactive); in the experiment on SN12C it was > 100 µM (inactive). Also, the GI50 with MDA-MB-231, in the experiment with CAKI-1, in the experiment with RXF 393, with UO-31, in the experiment on SK-MEL-5 and in the experiment with MCF7 was > 100 µM (inactive) throughout.
